Assay [1] addresses T1, 6His-Tev-LRRK2 (1326-2527) (Homo sapiens, UniProt Q5S007).
T1 construct: A LRRK2 cDNA encoding residues 1326-2527 was received from Dundee University; made in house; host or cells: Spodoptera frugiperda (Sf9) insect cells, baculovirus (pFB-HTb)
T1 sequence (Q5S007 1326-2527): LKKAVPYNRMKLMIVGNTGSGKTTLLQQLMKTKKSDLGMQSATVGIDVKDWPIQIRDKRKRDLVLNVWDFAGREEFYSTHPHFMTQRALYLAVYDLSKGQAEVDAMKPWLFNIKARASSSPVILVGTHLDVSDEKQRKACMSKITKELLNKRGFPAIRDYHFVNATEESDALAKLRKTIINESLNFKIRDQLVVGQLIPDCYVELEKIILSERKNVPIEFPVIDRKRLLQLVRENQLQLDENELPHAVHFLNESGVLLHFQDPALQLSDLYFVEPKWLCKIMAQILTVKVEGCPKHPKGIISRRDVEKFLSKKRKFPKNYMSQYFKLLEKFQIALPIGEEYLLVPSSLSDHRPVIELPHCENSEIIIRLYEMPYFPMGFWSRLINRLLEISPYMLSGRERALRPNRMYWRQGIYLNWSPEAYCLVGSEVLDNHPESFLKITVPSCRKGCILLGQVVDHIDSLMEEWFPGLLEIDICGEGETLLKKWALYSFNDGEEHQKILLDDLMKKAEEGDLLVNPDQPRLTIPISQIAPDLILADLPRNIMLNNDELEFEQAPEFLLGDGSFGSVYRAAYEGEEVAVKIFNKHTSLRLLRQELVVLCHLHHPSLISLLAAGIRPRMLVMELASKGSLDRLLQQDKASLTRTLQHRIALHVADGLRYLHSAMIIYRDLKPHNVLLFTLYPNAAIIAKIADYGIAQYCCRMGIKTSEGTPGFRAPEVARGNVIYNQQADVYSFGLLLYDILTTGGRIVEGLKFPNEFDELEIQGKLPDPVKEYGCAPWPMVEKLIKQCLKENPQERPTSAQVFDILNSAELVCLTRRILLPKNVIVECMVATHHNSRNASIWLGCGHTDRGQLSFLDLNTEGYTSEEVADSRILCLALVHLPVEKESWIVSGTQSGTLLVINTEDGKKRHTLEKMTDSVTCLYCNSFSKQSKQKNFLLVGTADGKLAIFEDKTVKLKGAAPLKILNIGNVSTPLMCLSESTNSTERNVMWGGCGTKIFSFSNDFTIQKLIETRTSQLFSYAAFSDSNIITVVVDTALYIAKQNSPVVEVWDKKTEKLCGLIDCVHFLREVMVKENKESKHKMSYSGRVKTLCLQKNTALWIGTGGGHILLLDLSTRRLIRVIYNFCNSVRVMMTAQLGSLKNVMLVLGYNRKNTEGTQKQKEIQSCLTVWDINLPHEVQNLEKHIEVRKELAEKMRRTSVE
Description: LRRK2 peptide substrate assay. Type of assay: biochemical. The note with it: mean pIC50 of multiple test results. Summed up:
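Compound (1:4 series, top 30 μM final) preincubated 30 min at RT with the enzyme solution (80 nM) in pH 7.2 Hepes, 10 mM MgCl2 buffer. Reaction was started with substrate solution (2 μM Biotin-LRRKtide, ATP at Km) and run 1–2 h at RT. Phospho-peptide detected by TR-FRET (Eu/APC, 665/620 nm) after EDTA stop.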

The target of assay [2] is T1, 6His-Tev-LRRK2 (1326-2527). Description: LRRK2 AlphaScreen desensitised protein substrate assay. The note with it: mean pIC50 of multiple test results. The class given is biochemical. Summed up: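 Compounds (1:4 series, top final 30 μM) were preincubated 30 min at room temperature with 6His-Tev-LRRK2 (1326-2527) solution (80 nM) in Hepes pH 7.2, 10 mM MgCl2. Substrate solution held 200 nM GST-PS-Moesin (400-577) and 2 mM ATP, and the reaction ran 20 min. Phospho-Moesin Thr558 was read by AlphaLisa antibody-bead detection after 2 h.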
For orientation: Bead proximity is the source of the signal in Alpha formats.

[3] abbreviates: stated as threshold, read-out: pIC50 in the LRRK2 peptide substrate assay (bounds) (converted).
Where [4] appears, read: stated as threshold, read-out: pIC50 in the LRRK2 alphascreen desensitised protein substrate assay (bounds) (converted).

For `Cn1cc(-c2cc(C(=O)Nc3cccc(Cl)c3)c(OCc3ccc(F)cc3)cc2C(=O)N2CCOCC2)cn1` [Example 48, N-(3-chlorophenyl)-2-((4-fluorobenzyl)oxy)-5-(1-methyl-1H-pyrazol-4-yl)-4-(morpholine-4-carbonyl)benzamide], the IC50 in assay [1] (Biotin-LRRKtide peptide substrate, ATP at Km, read-out: LRRK2 peptide substrate assay (pIC50) (converted)) is 0.00631 µM; in assay [1] (setting [3]) it was ≤ 0.01 µM; in assay [2] (GST-PS-Moesin (400-577) substrate, 2 mM ATP, read-out: LRRK2 alphascreen desensitized protein substrate assay (pIC50) (converted)), 0.0158 µM; in assay [2] (setting [4]) it was ≤ 0.316 µM.

Take `Cn1cc(-c2cc(C(=O)Nc3cccc(Cl)c3)c(OCc3ccccc3)cc2CN2CCOCC2)cn1` [Example 49, 2-(benzyloxy)-N-(3-chlorophenyl)-5-(1-methyl-1H-pyrazol-4-yl)-4-(morpholinomethyl)benzamide]: the IC50 in assay [1] (setting [3]) is ≤ 0.1 µM; in assay [2] (setting [4]), > 25.1 µM.

Take `O=C(Nc1cccc(Cl)c1)c1cc(C(F)(F)F)c(CN2CCOCC2)cc1OCc1ccccc1` [Example 52, 2-(Benzyloxy)-N-(3-chlorophenyl)-4-(morpholinomethyl)-5-(trifluoromethyl)benzamide]: the values for the IC50 in assay [1] (setting [3]) and in assay [2] (setting [4]) were ≤ 1.26 µM and > 25.1 µM, respectively.

As to `O=C(Nc1cccc(F)c1)c1cc(C(F)(F)F)c(CN2CCOCC2)cc1OCc1ccccc1` [Example 53, 2-(Benzyloxy)-N-(3-fluorophenyl)-4-(morpholinomethyl)-5-(trifluoromethyl)benzamide], the IC50 in assay [1] (setting [3]) was ≤ 0.01 µM; in assay [2] (setting [4]) it was > 25.1 µM.

Consider `CN1CCN(C(=O)c2cc(OCc3ccccc3)c(C(=O)Nc3ccnnc3)cc2Cl)CC1` [Example 55, 2-(benzyloxy)-5-chloro-4-(4-methylpiperazine-1-carbonyl)-N-(pyridazin-4-yl)benzamide], for which the IC50 was ≤ 0.1 µM in assay [1] (setting [3]) and ≤ 0.316 µM in assay [2] (setting [4]).

With `CN1CCN(C(=O)c2cc(OCc3ccccc3)c(C(=O)Nc3cccnn3)cc2Cl)CC1` [Example 56, 2-(benzyloxy)-5-chloro-4-(4-methylpiperazine-1-carbonyl)-N-(pyridazin-3-yl)benzamide], the IC50 was ≤ 0.1 µM in assay [1] (setting [3]) and ≤ 25.1 µM in assay [2] (setting [4]).

Regarding `CN1CCN(C(=O)c2cc(OCc3ccccc3)c(C(=O)Nc3ccccc3)cc2Cl)CC1` [Example 57, 2-(benzyloxy)-5-chloro-4-(4-methylpiperazine-1-carbonyl)-N-phenylbenzamide], the IC50 is ≤ 0.1 µM in assay [1] (setting [3]) and ≤ 25.1 µM in assay [2] (setting [4]).
